The record followed here is ChEMBL document CHEMBL3132815, “Design, synthesis and activities of 4/5-acyl-2-aminoimidazolyl analogues of oroidin for biofilm inhibition” (Medchemcomm, 2013).

In data set [1] the test system is Pseudomonas aeruginosa. The data set can be described thus: Antibiofilm activity against Pseudomonas aeruginosa PAO1 assessed as inhibition of biofilm formation at 50 ug/ml. It counts as functional.
The subject of data set [2] is Pseudomonas aeruginosa. The data set can be described thus: Antibacterial activity against Pseudomonas aeruginosa PAO1 assessed as planktonic growth at 50 ug/ml. It counts as organism-based.
The test system of data set [3] is Staphylococcus aureus. The data set can be described thus: Antibiofilm activity against methicillin-resistant Staphylococcus aureus 1094 assessed as inhibition of biofilm formation at 50 ug/ml. It counts as functional.
Data set [4] concerns Staphylococcus aureus. Briefly: Antibacterial activity against methicillin-resistant Staphylococcus aureus 1094 assessed as planktonic growth at 50 ug/ml. It counts as organism-based.
Data set [5] has as its system Staphylococcus aureus. The data set can be described thus: Antibiofilm activity against methicillin-resistant Staphylococcus aureus assessed as inhibition of biofilm formation at 50 ug/ml. It counts as functional.
The subject of data set [6] is Staphylococcus aureus. Briefly: Antibacterial activity against methicillin-resistant Staphylococcus aureus assessed as planktonic growth at 50 ug/ml. It counts as organism-based. Particulars: in vitro.
The test system of data set [7] is Staphylococcus aureus. Briefly: Antibiofilm activity against Staphylococcus aureus ATCC 35556 assessed as inhibition of biofilm formation at 50 ug/ml. In kind it is functional.
The test system of data set [8] is Staphylococcus aureus. Briefly: Antibacterial activity against Staphylococcus aureus ATCC 35556 assessed as planktonic growth at 50 ug/ml. It counts as organism-based.
Data set [9] relates to Staphylococcus epidermidis. Briefly: Antibiofilm activity against Staphylococcus epidermidis 1457 assessed as inhibition of biofilm formation at 50 ug/ml. In kind it is functional.
Data set [10] has as its system Staphylococcus epidermidis. The data set can be described thus: Antibacterial activity against Staphylococcus epidermidis 1457 assessed as planktonic growth at 50 ug/ml. In kind it is organism-based.
For data set [11], the system named is Staphylococcus epidermidis. Briefly: Antibiofilm activity against Staphylococcus epidermidis GTC 18972 assessed as inhibition of biofilm formation at 50 ug/ml. It counts as functional.
Data set [12] concerns Staphylococcus epidermidis. The data set can be described thus: Antibacterial activity against Staphylococcus epidermidis GTC 18972 assessed as planktonic growth at 50 ug/ml. In kind it is organism-based.

`O=C(NC/C=C/c1cnc2ncccn12)c1cc(Br)c[nH]1`: the inhibition at 50 µg/mL in the data set with Pseudomonas aeruginosa [1] was 2.1%; in the data set with Staphylococcus aureus [3] it was 36%; in the data set with Staphylococcus aureus [5] it was -108%; with Staphylococcus aureus [7] it was -5.5%; in [9] it was 14%; in data set [11], -1.8%. For the same compound, the Activity is recorded as -19.9% with Pseudomonas aeruginosa [2]; -8.7% with Staphylococcus aureus [4]; -16.4% with Staphylococcus aureus [6]; 8.6% in the data set on Staphylococcus aureus [8]; -24% in data set [10]; -3.1% in data set [12].

As for `O=C(NC/C=C/c1cnc2ncccn12)c1ccc[nH]1`, the inhibition at 50 µg/mL in the data set on Pseudomonas aeruginosa [1] is -2.9%; with Staphylococcus aureus [3], 47.8%; in the data set on Staphylococcus aureus [5] it was -61%; in the data set on Staphylococcus aureus [7], 16.4%; in data set [9] it was 22.8%; in [11], 45.9%. In addition, the Activity in the data set on Pseudomonas aeruginosa [2] is 14.6%; in the data set on Staphylococcus aureus [4], -0.8%; in the data set with Staphylococcus aureus [6] it was 5%; in the data set with Staphylococcus aureus [8], -11.5%; in data set [10], -8.9%; in data set [12] it was 0.1%.

For `O=C(NCCC(=O)c1cnc2ncccn12)c1cc(Br)c(Br)[nH]1`, the inhibition at 50 µg/mL in the data set with Pseudomonas aeruginosa [1] was 8.66%; in the data set with Staphylococcus aureus [3], 0.13%; in the data set on Staphylococcus aureus [5], -124%; in the data set with Staphylococcus aureus [7], -4.41%; in data set [9] it was 4.48%; in data set [11], -9.35%. Moreover, the Activity is given as -13.02% in the data set with Pseudomonas aeruginosa [2]; 6.37% in the data set with Staphylococcus aureus [4]; -1.91% in the data set with Staphylococcus aureus [6]; -6.51% with Staphylococcus aureus [8]; 9.93% in data set [10]; 15.9% in data set [12].

With `O=C(NCCC(=O)c1cnc2ncccn12)c1cc(Br)c[nH]1`, the inhibition at 50 µg/mL in the data set with Pseudomonas aeruginosa [1] is 17%; in the data set on Staphylococcus aureus [3] it was 22.5%; with Staphylococcus aureus [5] it was -127%; with Staphylococcus aureus [7], -8.17%; in data set [9], 2.71%; in data set [11], -9.3%. Moreover, the Activity is reported as -14.84% in the data set on Pseudomonas aeruginosa [2]; 5.81% in the data set with Staphylococcus aureus [4]; -6.08% with Staphylococcus aureus [6]; 4.97% with Staphylococcus aureus [8]; -2.26% in data set [10]; 1.02% in data set [12].

Turning to `O=C(NCCC(=O)c1cnc2ncccn12)c1ccc[nH]1`, the inhibition at 50 µg/mL in the data set on Pseudomonas aeruginosa [1] was 13.2%; with Staphylococcus aureus [3], -25.1%; in the data set on Staphylococcus aureus [5], 16.9%; in the data set with Staphylococcus aureus [7] it was -1.6%; in data set [9], 1.26%; in [11], -16.7%. For the same compound, the Activity in the data set on Pseudomonas aeruginosa [2] is given as -15.89%; in the data set on Staphylococcus aureus [4], 10.52%; in the data set with Staphylococcus aureus [6] it was 0.95%; in the data set with Staphylococcus aureus [8] it was 6.67%; in data set [10], -3.27%; in data set [12] it was 11.45%.

In the case of `O=C(NCC(O)c1cnc2ncccn12)c1cc(Br)c(Br)[nH]1` (centres undefined), the inhibition at 50 µg/mL in the data set with Pseudomonas aeruginosa [1] was 8.66%; in the data set with Staphylococcus aureus [3] it was 0.13%; in the data set on Staphylococcus aureus [5], -124%; in the data set with Staphylococcus aureus [7], -4.41%; in [9] it was 4.48%; in [11], -9.35%. Also, the Activity in the data set with Pseudomonas aeruginosa [2] is -13.02%; in the data set on Staphylococcus aureus [4] it was 6.37%; with Staphylococcus aureus [6], -1.91%; in the data set with Staphylococcus aureus [8], -6.51%; in data set [10], 9.93%; in data set [12], 15.9%.

As to `O=C(NCC(O)c1cnc2ncccn12)c1cc(Br)c[nH]1` (centres undefined), the inhibition at 50 µg/mL with Pseudomonas aeruginosa [1] was 17%; in the data set with Staphylococcus aureus [3] it was 22.5%; in the data set on Staphylococcus aureus [5], -127%; in the data set on Staphylococcus aureus [7] it was -8.17%; in [9] it was 2.71%; in data set [11], -9.3%. Further, the Activity is -14.84% in the data set on Pseudomonas aeruginosa [2]; 5.81% in the data set with Staphylococcus aureus [4]; -6.08% in the data set on Staphylococcus aureus [6]; 4.97% in the data set on Staphylococcus aureus [8]; -2.26% in [10]; 1.02% in [12].

For the compound `O=C(NCC(O)c1cnc2ncccn12)c1ccc[nH]1` (centres undefined), the inhibition at 50 µg/mL with Pseudomonas aeruginosa [1] was 13.2%; with Staphylococcus aureus [3], -25.1%; in the data set with Staphylococcus aureus [5] it was 16.9%; with Staphylococcus aureus [7], -1.6%; in data set [9], -1.26%; in data set [11], -16.8%. Besides, the Activity with Pseudomonas aeruginosa [2] is recorded as -15.89%; in the data set on Staphylococcus aureus [4], 10.52%; in the data set with Staphylococcus aureus [6], 0.95%; in the data set on Staphylococcus aureus [8], 6.67%; in [10], -3.27%; in data set [12], 11.45%.

For `O=C(NCCC(O)c1cnc2ncccn12)c1cc(Br)c(Br)[nH]1` (centres undefined), the inhibition at 50 µg/mL was -1.4% in the data set with Pseudomonas aeruginosa [1]; 26.2% in the data set with Staphylococcus aureus [3]; -20.9% in the data set with Staphylococcus aureus [5]; -2.2% with Staphylococcus aureus [7]; 19.6% in [9]; -33.1% in [11]. The Activity was 14.1% in the data set on Pseudomonas aeruginosa [2]; -0.8% in the data set with Staphylococcus aureus [4]; -5.1% in the data set with Staphylococcus aureus [6]; 2.9% with Staphylococcus aureus [8]; 10.2% in data set [10]; 14.8% in data set [12].

On to `O=C(NCCC(O)c1cnc2ncccn12)c1cc(Br)c[nH]1` (centres undefined), for which the inhibition at 50 µg/mL in the data set on Pseudomonas aeruginosa [1] is 1.9%; in the data set with Staphylococcus aureus [3] it was 34.3%; in the data set on Staphylococcus aureus [5], 8%; in the data set with Staphylococcus aureus [7], 2.2%; in data set [9], 2.6%; in data set [11], -14.1%. The Activity was 17.1% in the data set with Pseudomonas aeruginosa [2]; 17.3% in the data set on Staphylococcus aureus [4]; 15.4% in the data set with Staphylococcus aureus [6]; 4.7% in the data set with Staphylococcus aureus [8]; 2.9% in data set [10]; 6.5% in data set [12].

`O=C(NCCC(O)c1cnc2ncccn12)c1ccc[nH]1` (centres undefined): the inhibition at 50 µg/mL in the data set on Pseudomonas aeruginosa [1] is 3.9%; in the data set with Staphylococcus aureus [3], 26.8%; in the data set with Staphylococcus aureus [5] it was -5.1%; in the data set on Staphylococcus aureus [7] it was -6.5%; in data set [9], 9.6%; in data set [11] it was 18.1%. Further, the Activity with Pseudomonas aeruginosa [2] is on record as -19.1%; in the data set with Staphylococcus aureus [4] it was -7.9%; in the data set with Staphylococcus aureus [6], 6.1%; in the data set on Staphylococcus aureus [8] it was 3.3%; in data set [10], 0.7%; in data set [12] it was 1%.

For the compound `O=C(NC/C=C/c1cnc2ncccn12)c1cc(Br)c(Br)[nH]1`, the inhibition at 50 µg/mL in the data set on Pseudomonas aeruginosa [1] was -1.7%; in the data set with Staphylococcus aureus [3], 38.9%; in the data set on Staphylococcus aureus [5] it was -9.7%; in the data set with Staphylococcus aureus [7], -0.4%; in data set [9] it was 18.3%; in data set [11], -16.6%. Further, the Activity in the data set on Pseudomonas aeruginosa [2] was 11.6%; in the data set with Staphylococcus aureus [4], -0.5%; with Staphylococcus aureus [6], -6.1%; in the data set with Staphylococcus aureus [8], 3.3%; in data set [10], 7.8%; in data set [12] it was 9.1%.

For orientation: inhibition means the relative decrease from the control value, in per cent.
